IC50 data for 32 compounds are collected here from ChEMBL document CHEMBL5325400 (Eur J Med Chem, 2023).

pIC50: −log10 of the molar value. A value given as a limit tells only on which side of the number the result lay.

Common to all, as to assay type: functional, cell-based
For one assay, the system named is A549. Put plainly: Antiproliferative activity against human A549 cells assessed as inhibition of cell growth measured after 48 hrs by MTT assay. The conditions noted are these: A549, 48 h.
A further assay has as its system MDA-MB-231. Put plainly: Antiproliferative activity against human MDA-MB-231 cells assessed as inhibition of cell growth measured after 48 hrs by MTT assay. The settings on record: MDA-MB-231, 48 h.
In the next assay the test system is HepG2. Put plainly: Antiproliferative activity against human HepG2 cells assessed as inhibition of cell growth measured after 48 hrs by MTT assay. The settings on record: HepG2, 48 h.
Another assay has as its system HeLa. Put plainly: Antiproliferative activity against human HeLa cells assessed as inhibition of cell growth measured after 48 hrs by MTT assay.
Another assay deals with B16-F10. The experiment in a line: Antiproliferative activity against mouse B16-F10 cells assessed as inhibition of cell growth measured after 48 hrs by MTT assay. The settings on record: B16-F10, 48 h.
A further assay has as its system SK-OV-3. The experiment in a line: Antiproliferative activity against human SK-OV-3 cells assessed as inhibition of cell growth measured after 48 hrs by MTT assay. The conditions noted are these: SK-OV-3, 48 h.

`COc1cccc(Nc2cc(Nc3cccc(NC(=O)C4CCCCC4)c3)ncn2)c1`: the pIC50 in the assay with A549 was 7.08; in the assay with MDA-MB-231 it was under 6.00; in the assay on HepG2 it was 6.78; in the assay on HeLa, 7.28; with B16-F10, 6.50; in the assay with SK-OV-3 it was 7.63.
With `COc1cccc(Nc2cc(Nc3cccc(NS(=O)(=O)C4CCCCC4)c3)ncn2)c1`, the pIC50 is under 6.00 with A549; under 6.00 in the assay with MDA-MB-231; under 6.00 in the assay on HepG2; under 6.00 in the assay with HeLa; under 6.00 with B16-F10; 6.54 in the assay with SK-OV-3.
On to `CCC(=O)Nc1cccc(Nc2cc(Nc3cccc(OC)c3)ncn2)c1`, for which the pIC50 in the assay on A549 is 6.56; with MDA-MB-231 it was under 6.00; in the assay on HepG2, 7.00; in the assay with HeLa, 8.17; with B16-F10, 6.41; in the assay on SK-OV-3, 7.85.
Regarding `Cc1nc(Nc2cccc(NC(=O)C3CC3)c2)cc(Nc2cccc(C(F)(F)F)c2)n1`, the pIC50 in the assay on A549 is under 6.00; in the assay on MDA-MB-231, under 6.00; with HepG2 it was 7.19; in the assay on HeLa it was under 6.00; with B16-F10 it was 6.25; with SK-OV-3, 6.91.
Turning to `COc1cccc(Nc2cc(Nc3ccc(NC(=O)C4CC4)cc3)ncn2)c1`, the pIC50 in the assay with A549, with MDA-MB-231, in the assay on HepG2, in the assay on HeLa, in the assay with B16-F10 and in the assay on SK-OV-3 was under 6.00 in each case.
Consider `COc1cccc(Nc2cc(Nc3cccc(NC(=O)C(C)C)c3)ncn2)c1`, for which the pIC50 in the assay with A549 was 6.52; with MDA-MB-231, 6.19; with HepG2 it was under 6.00; in the assay on HeLa, under 6.00; with B16-F10, under 6.00; in the assay on SK-OV-3, 7.39.
Regarding `Cc1cc(NC(=O)C2CC2)cc(Nc2cc(Nc3cccc(C(F)(F)F)c3)ncn2)c1`, the pIC50 in the assay on A549 is under 6.00; in the assay on MDA-MB-231 it was under 6.00; with HepG2 it was 6.70; in the assay with HeLa, 6.30; in the assay on B16-F10, 6.35; in the assay on SK-OV-3, 7.50.
On to `COc1cccc(Nc2cc(Nc3cccc(C(=O)NC4CCCC4)c3)ncn2)c1`, for which the pIC50 in the assay on A549, with MDA-MB-231, in the assay on HepG2, in the assay on HeLa, with B16-F10 and with SK-OV-3 was under 6.00 throughout.
As for `O=C(Nc1cccc(Nc2nc(Nc3cccc(C(F)(F)F)c3)nc3ccsc23)c1)C1CC1`, the negative-log IC50 (pIC50) in the assay with A549, with MDA-MB-231, in the assay on HepG2, with HeLa, in the assay on B16-F10 and with SK-OV-3 was under 6.00 each time.
As for `O=C(Nc1cccc(Nc2nc(Nc3cccc(C(F)(F)F)c3)c3ccccc3n2)c1)C1CC1`, the pIC50 with A549, with MDA-MB-231, in the assay on HepG2, in the assay with HeLa, with B16-F10 and in the assay on SK-OV-3 was under 6.00 each time.
Consider `O=C(NCCCNc1cc(Nc2cccc(C(F)(F)F)c2)ncn1)C1CC1`, for which the pIC50 in the assay on A549, in the assay on MDA-MB-231, with HepG2, in the assay on HeLa, in the assay on B16-F10 and with SK-OV-3 was under 6.00 each time.
Take `O=C(Nc1cccc(Nc2cc(N3CCc4c3cccc4C(F)(F)F)ncn2)c1)C1CC1`: the negative logarithm of the IC50 (pIC50) in the assay with A549, in the assay with MDA-MB-231, in the assay with HepG2, with HeLa, with B16-F10 and in the assay on SK-OV-3 was under 6.00 each time.
Turning to `COc1cccc(Nc2nc(Nc3cccc(NC(=O)C4CC4)c3)nc3ccccc23)c1`, the pIC50 with A549 was under 6.00; with MDA-MB-231, 6.91; in the assay on HepG2 it was under 6.00; in the assay on HeLa, under 6.00; in the assay on B16-F10 it was 6.77; in the assay on SK-OV-3, 6.06.
For the compound `COc1cc(Nc2cc(Nc3cccc(NC(=O)C4CC4)c3)ncn2)ccc1Cl`, the pIC50 with A549 is 6.26; in the assay on MDA-MB-231, 6.45; with HepG2 it was 6.43; in the assay with HeLa it was 6.40; in the assay on B16-F10 it was 6.33; in the assay on SK-OV-3, 6.09.
Turning to `COc1cccc(Nc2nc(Nc3cccc(NC(=O)C4CC4)c3)nc3sccc23)c1`, the pIC50 in the assay on A549, in the assay on MDA-MB-231, in the assay with HepG2, in the assay with HeLa, with B16-F10 and in the assay on SK-OV-3 was under 6.00 each time.
With `COc1cccc(Nc2cc(Nc3cccc(NS(=O)(=O)C4CC4)c3)ncn2)c1`, the pIC50 with A549 is 7.09; in the assay with MDA-MB-231, 6.36; in the assay with HepG2, 6.55; with HeLa it was 6.89; in the assay with B16-F10, 7.27; in the assay with SK-OV-3, 7.25.
Turning to `Cc1c(F)cccc1Nc1cc(Nc2cccc(NC(=O)C3CC3)c2)ncn1`, the pIC50 with A549 was 7.55; with MDA-MB-231, 7.63; in the assay with HepG2, 6.37; with HeLa, 7.21; in the assay on B16-F10 it was 7.75; in the assay on SK-OV-3, 7.50.
`O=C(Nc1cccc(Nc2cc(N3CCOc4ccccc43)ncn2)c1)C1CC1`: the pIC50 in the assay with A549 was under 6.00; in the assay with MDA-MB-231 it was 6.25; with HepG2 it was 7.46; in the assay on HeLa, 6.46; in the assay on B16-F10, under 6.00; in the assay with SK-OV-3, 7.07.
In the case of `COc1cccc(Nc2nc(Nc3cccc(NC(=O)C4CC4)c3)nc3ccsc23)c1`, the pIC50 with A549 is under 6.00; with MDA-MB-231 it was 6.21; with HepG2 it was under 6.00; in the assay with HeLa, under 6.00; in the assay on B16-F10, under 6.00; in the assay with SK-OV-3, under 6.00.
With `COc1cccc(Nc2cc(Nc3cccc(NC(=O)C4CC4)c3)nc(C)n2)c1`, the negative-log IC50 (pIC50) in the assay on A549 was under 6.00; with MDA-MB-231, under 6.00; with HepG2, 7.03; with HeLa, 6.92; with B16-F10, 8.02; with SK-OV-3 it was 6.81.
`O=C(Nc1cccc(Nc2nc(Nc3cccc(C(F)(F)F)c3)c3sccc3n2)c1)C1CC1`: the negative-log IC50 (pIC50) in the assay on A549, with MDA-MB-231, in the assay with HepG2, in the assay with HeLa, with B16-F10 and in the assay with SK-OV-3 was under 6.00 each time.
As to `CC(=O)c1cccc(Nc2cc(Nc3cccc(NC(=O)C4CC4)c3)ncn2)c1`, the negative logarithm of the IC50 (pIC50) in the assay on A549 is 6.29; in the assay with MDA-MB-231, 7.19; with HepG2 it was 6.90; in the assay on HeLa, 7.65; in the assay on B16-F10, 6.78; in the assay on SK-OV-3, 7.50.
Regarding `COc1cccc(Nc2cc(Nc3cccc(NC(=O)C4CC4)c3)ncn2)c1F`, the pIC50 in the assay on A549 is 8.32; in the assay on MDA-MB-231, 7.50; in the assay on HepG2, 6.50; in the assay on HeLa it was 7.34; with B16-F10, 6.74; with SK-OV-3, 7.57.
Take `COc1cccc(Nc2cc(Nc3cccc(C(=O)NC4CCCCC4)c3)ncn2)c1`: the pIC50 in the assay on A549, with MDA-MB-231, with HepG2, in the assay with HeLa, in the assay on B16-F10 and with SK-OV-3 was under 6.00 throughout.
Take `COc1nc(Nc2cccc(NC(=O)C3CC3)c2)cc(Nc2cccc(C(F)(F)F)c2)n1`: the pIC50 in the assay on A549, in the assay on MDA-MB-231, in the assay on HepG2, in the assay with HeLa, in the assay on B16-F10 and in the assay on SK-OV-3 was under 6.00 in each case.
In the case of `COc1cccc(Nc2cc(Nc3cccc(NC(=O)C4CCCC4)c3)ncn2)c1`, the pIC50 with A549 is 6.70; with MDA-MB-231 it was 6.98; with HepG2, 6.80; with HeLa, 7.38; in the assay with B16-F10 it was under 6.00; with SK-OV-3, 8.02.
On to `O=C(Nc1cccc(Nc2nc(Nc3cccc(C(F)(F)F)c3)nc3ccccc23)c1)C1CC1`, for which the negative-log IC50 (pIC50) in the assay with A549, in the assay with MDA-MB-231, with HepG2, with HeLa, with B16-F10 and in the assay with SK-OV-3 was under 6.00 each time.
Turning to `Cc1cccc2c1CCN2c1cc(Nc2cccc(NC(=O)C3CC3)c2)ncn1`, the pIC50 with A549, in the assay with MDA-MB-231, in the assay with HepG2, with HeLa, with B16-F10 and in the assay on SK-OV-3 was under 6.00 throughout.
For `O=C(Nc1cccc(Nc2cc(Nc3cccc(C(F)F)c3)ncn2)c1)C1CC1`, the negative logarithm of the IC50 (pIC50) was 8.03 in the assay on A549; 7.41 with MDA-MB-231; 7.81 with HepG2; 7.31 in the assay on HeLa; 7.21 in the assay with B16-F10; 8.68 in the assay on SK-OV-3.
As to `COc1cccc(Nc2cc(Nc3cccc(OC)c3)ncn2)c1`, the pIC50 with A549, with MDA-MB-231, with HepG2, in the assay with HeLa, in the assay on B16-F10 and in the assay with SK-OV-3 was under 6.00 each time.
For the compound `O=C(Nc1cncc(Nc2cc(Nc3cccc(C(F)(F)F)c3)ncn2)c1)C1CC1`, the negative-log IC50 (pIC50) in the assay with A549, in the assay on MDA-MB-231, with HepG2, with HeLa, with B16-F10 and with SK-OV-3 was under 6.00 in each case.
Regarding `O=C(Nc1cccc(Nc2cc(N3CCc4ccccc43)ncn2)c1)C1CC1`, the pIC50 in the assay on A549, in the assay on MDA-MB-231, in the assay on HepG2, in the assay with HeLa, with B16-F10 and in the assay with SK-OV-3 was under 6.00 throughout.
